Assay results published in BigSolDB 2.1.

COc1cc(C(=O)O)cc(OC)c1O
solubility (mole fraction)
Conditions | 283.15 K | 288.15 K | 293.15 K | 298.15 K | 303.15 K | 308.15 K | 313.15 K | 318.15 K | 323.15 K
in ethanol | 0.0115 | 0.0125 | 0.0145 | 0.0169 | 0.0188 | 0.0217 | 0.0251 | 0.0279 | 0.0316
in ethyl acetate | 0.0007 | 0.00084 | 0.001 | 0.00125 | 0.00149 | 0.0018 | 0.00221 | 0.0026 | 0.00323
in ethylene glycol | 0.00812 | 0.00951 | 0.0113 | 0.0124 | 0.0146 | 0.017 | 0.0203 | 0.0235 | 0.0269
in isopropanol | 0.00401 | 0.00455 | 0.00545 | 0.00627 | 0.00752 | 0.00853 | 0.00971 | 0.0115 | 0.0131
in methanol | 0.0137 | 0.015 | 0.0173 | 0.019 | 0.0209 | 0.0238 | 0.0271 | 0.0298 | 0.0331
in n-butanol | 0.0032 | 0.00375 | 0.00441 | 0.00518 | 0.00624 | 0.00735 | 0.00832 | 0.0098 | 0.0116
in n-hexanol | 0.00241 | 0.00281 | 0.0033 | 0.0042 | 0.0048 | 0.0058 | 0.00702 | 0.00852 | 0.0101
in sec-butanol | 0.00188 | 0.00223 | 0.0029 | 0.00357 | 0.00432 | 0.00503 | 0.00604 | 0.00737 | 0.00921
